A short description of series [1]: Intrinsic clearance in rat hepatocytes measured per 10^6 cells. The class given is ADME, cell-based, Hepatocyte. The note with it: read-out: CLH.
A short description of series [2]: Intrinsic clearance in human microsomes. The class given is ADME, Microsome.
Series [3] can be described thus: Hydrolytic stability of the compound at 10 uM at pH 4 at 65 degC after 18 hrs in presence of 2-methoxyethanol. In kind it is physicochemical. The note with it: buffer, pH 4, 18 h.
A short description of series [4]: Hydrolytic stability of the compound at 10 uM at pH 6 at 65 degC after 18 hrs in presence of 2-methoxyethanol. The class given is physicochemical. The note with it: buffer, pH 6, 18 h.
A short description of series [5]: Hydrolytic stability of the compound at 10 uM at pH 8 at 65 degC after 18 hrs in presence of 2-methoxyethanol. The class given is physicochemical. The note with it: buffer, pH 8, 18 h.
Series [6] in a line: Hexadecane-phosphate buffer distribution coefficient, log P of the compound at pH 7.4. In kind it is physicochemical.
Series [7] is described as follows: Permeability from apical to basolateral side in human Caco2 cells. The note with it: Caco-2, read-out: permeability. In kind it is ADME, cell-based. A general note: Passage across Caco-2 layers is used to estimate intestinal permeability.
Series [8] is described as follows: Permeability from basolateral to apical side in human Caco2 cells. The class given is ADME, cell-based. The note with it: Caco-2, read-out: permeability.
Series [9] can be described thus: Half life at 10 uM at pH 4 at 65 degC. In kind it is physicochemical. The note with it: buffer.
The nature of series [10]: Half life at 10 uM at pH 6 at 65 degC. The class given is physicochemical. Conditions: buffer.
Series [11] is described as follows: Half life at 10 uM at pH 8 at 65 degC. The class given is physicochemical. The note with it: buffer.
A short description of series [12]: Half life at 10 uM at pH 4 at 25 degC. The class given is physicochemical. Conditions: buffer.
Series [13] can be described thus: Half life at 10 uM at pH 6 at 25 degC. In kind it is physicochemical. The note with it: buffer.
Series [14] can be described thus: Half life at 10 uM at pH 8 at 25 degC. In kind it is physicochemical. Conditions: buffer.
Series [15] can be described thus: Fraction unbound in human plasma. In kind it is ADME, cell-free.
Series [16] in a line: Fraction unbound in mouse plasma. In kind it is ADME, cell-free.
The nature of series [17]: Fraction unbound in rat plasma. In kind it is ADME, cell-free.
Series [18] has as its target Voltage-gated inwardly rectifying potassium channel KCNH2 (Homo sapiens, UniProt Q12809). In words: Inhibition of human ERG.
Series [19] is described as follows: physchem. Conditions: octanol/aqueous phosphate buffer, pH 7.4.
Description: Octanol-aqueous phosphate buffer distribution coefficient, log P of the compound at pH 7.4
Series [20] can be described thus: physchem. The note with it: aqueous phosphate buffer, pH 7.4.
Description: Solubility of the compound in aqueous phosphate buffer at pH 7.4 at 25 degC after 24 hrs

In brackets after ≈: the same amount, converted by molar mass. Bounds are passed on as bounds.

Sequence of Voltage-gated inwardly rectifying potassium channel KCNH2 (Q12809 whole entry): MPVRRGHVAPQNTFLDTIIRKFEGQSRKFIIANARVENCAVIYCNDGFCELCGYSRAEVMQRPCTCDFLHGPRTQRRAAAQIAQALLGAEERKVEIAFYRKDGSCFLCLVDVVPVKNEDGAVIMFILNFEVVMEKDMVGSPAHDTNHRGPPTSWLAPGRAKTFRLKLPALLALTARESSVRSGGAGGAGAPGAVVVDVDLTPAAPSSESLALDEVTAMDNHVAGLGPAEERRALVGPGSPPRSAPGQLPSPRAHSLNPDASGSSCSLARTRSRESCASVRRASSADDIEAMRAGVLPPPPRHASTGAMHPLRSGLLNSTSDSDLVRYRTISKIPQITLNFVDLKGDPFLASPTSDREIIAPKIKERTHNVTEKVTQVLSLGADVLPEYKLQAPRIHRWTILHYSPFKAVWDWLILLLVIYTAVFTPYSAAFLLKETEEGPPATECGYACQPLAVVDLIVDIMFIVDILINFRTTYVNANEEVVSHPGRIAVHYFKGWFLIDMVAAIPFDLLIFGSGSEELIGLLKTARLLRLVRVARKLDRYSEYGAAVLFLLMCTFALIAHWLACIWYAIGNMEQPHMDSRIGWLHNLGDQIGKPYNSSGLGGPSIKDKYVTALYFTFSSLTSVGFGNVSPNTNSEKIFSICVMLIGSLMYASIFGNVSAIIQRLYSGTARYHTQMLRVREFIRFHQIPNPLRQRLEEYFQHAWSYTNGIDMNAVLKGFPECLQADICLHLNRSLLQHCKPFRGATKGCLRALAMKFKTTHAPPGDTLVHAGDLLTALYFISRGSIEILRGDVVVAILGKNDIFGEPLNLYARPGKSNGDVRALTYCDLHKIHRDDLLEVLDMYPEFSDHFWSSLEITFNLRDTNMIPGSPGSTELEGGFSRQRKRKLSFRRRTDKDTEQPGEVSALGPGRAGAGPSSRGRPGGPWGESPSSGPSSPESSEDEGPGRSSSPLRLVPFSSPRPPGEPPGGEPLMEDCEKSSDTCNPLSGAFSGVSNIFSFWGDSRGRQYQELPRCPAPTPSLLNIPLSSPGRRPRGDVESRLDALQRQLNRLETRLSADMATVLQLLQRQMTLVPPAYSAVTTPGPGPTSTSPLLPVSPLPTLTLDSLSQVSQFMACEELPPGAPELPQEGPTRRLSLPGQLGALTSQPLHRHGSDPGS

What is called microsomal CLint is a measure of how fast metabolising enzymes remove a compound, apart from limits set by blood flow. As to `CC(C)c1noc(N2CCN(c3ncc(OCc4ccncc4C#N)cn3)[C@H](C)C2)n1`, the hepatocyte CLint in series [1] worked out at 72 µL/min/1e6 cells. The compound also had a microsomal CLint in series [2] of 55 µL/min/mg. Moreover, the Stability entry in series [3], in series [4] and in [5] was “Stable” throughout.
Broadly, the logP is the decadic logarithm of the partition coefficient of the neutral form, usually between octanol and water. Read a low logP as lower lipophilicity. As usually defined, the half-life is the time in which the quantity being followed falls by half. Low values mean rapid decline, high ones slow decline. In [6], `C[C@@H]1CN(c2noc(C(F)(F)F)n2)CCN1c1ncc(OCc2ccncc2C#N)cn1` returned a log partition coefficient (logP) of 2.9. The hepatocyte CLint in series [1] turned out to be 42 µL/min/1e6 cells. This compound showed a microsomal CLint in series [2] of 28 µL/min/mg. Besides, the Papp A→B in series [7] was determined as 23 ×10⁻⁶ cm/s. Also, in series [8], the Papp B→A was 6 ×10⁻⁶ cm/s. The Stability entry in series [3], in [4] and in series [5] was “Unstable” throughout. In addition, the half-life at 10 µM in series [9] was 6.96 h; in series [10], 8.64 h; in [11] it was 2.88 h; in [12], 137 h; in series [13] it was 214 h; in series [14], 127 h.
Usually fraction unbound stands for free concentration divided by total concentration. High values mean much free substance, low ones little free substance. As usually defined, the IC50 is the concentration at which inhibition is half-maximal. Read a low IC50 as greater potency. In general, logD refers to lipophilicity at a set pH, counting ionised and neutral species. A higher logD goes with a more lipophilic compound. Broadly, the solubility is the concentration that dissolves in the medium under given conditions. Lower therefore signals little dissolved substance. Take `CC(C)c1nnc(N2CCN(c3ncc(OCc4ccncc4C#N)cn3)[C@H](C)C2)o1`: the fraction unbound worked out at 0.071 in series [15], 0.131 in series [16] and 0.087 in [17]. In [18], the IC50 is > 28 µM. Also, the logP in series [6] is given as -0.5. Also, the hepatocyte CLint in series [1] is 63 µL/min/1e6 cells. In series [2], this compound came in with a microsomal CLint of 47 µL/min/mg. Further, in [7], the Papp A→B turned out to be 16 ×10⁻⁶ cm/s. Moreover, in series [8], the Papp B→A turned out to be 13 ×10⁻⁶ cm/s. Further, the Stability entry in [3], in [4] and in [5] was “Stable” each time. Besides, the logD in the series “physchem [19]” was 2.6. Besides, the solubility at 24 h in the series “physchem [20]” is 150 µM (≈ 63.1 µg/mL).
In turn, `C[C@@H]1CN(c2nnc(C(F)(F)F)o2)CCN1c1ncc(OCc2ccncc2C#N)cn1` returned a logP in series [6] of 0.5. Moreover, the hepatocyte CLint in series [1] worked out at 53 µL/min/1e6 cells. In series [2], this compound gave a microsomal CLint of 34 µL/min/mg. Moreover, the Papp A→B in [7] is 18 ×10⁻⁶ cm/s. Further, the Papp B→A in [8] stood at 21 ×10⁻⁶ cm/s. Moreover, the Stability result in series [3], in series [4] and in series [5] was “Stable” in each case. Besides, the logD in “physchem [19]” came to 2.7.
The compound `C[C@@H]1CN(c2nc(C(F)(F)F)no2)CCN1c1ncc(OCc2ccncc2C#N)cn1` displayed a logP in series [6] of 1.4. Besides, the hepatocyte CLint in series [1] amounted to 52 µL/min/1e6 cells. For the same compound, the microsomal CLint in [2] was determined as 40 µL/min/mg. Further, in series [7], the Papp A→B was determined as 13 ×10⁻⁶ cm/s. In addition, the Papp B→A in series [8] was found to be 6 ×10⁻⁶ cm/s. Moreover, the Stability entry in series [3], in series [4] and in series [5] was “Stable” each time.
Regarding `CC(C)c1nc(N2CCN(c3ncc(OCc4ccncc4C#N)cn3)[C@H](C)C2)no1`, the logP in [6] came to 1.3. For the same compound, the hepatocyte CLint in series [1] stood at 70 µL/min/1e6 cells. This compound registered an intrinsic metabolic clearance (microsomal CLint) in series [2] of 48 µL/min/mg. Besides, in series [7], the Papp A→B came out at 15 ×10⁻⁶ cm/s. Besides, the Papp B→A in series [8] is 6 ×10⁻⁶ cm/s. Also, the Stability result in series [3], in [4] and in series [5] was “Stable” in each case.
With `C[C@@H]1CN(c2noc(C(F)F)n2)CCN1c1ncc(OCc2ccncc2C#N)cn1`, the lipophilicity (logP) in series [6] turned out to be 1.4. The Stability result in series [3], in [4] and in series [5] was “Stable” each time. The compound further showed a logD in “physchem [19]” of 2.8.

The values are drawn from ChEMBL document CHEMBL3217702, “Oxadiazole isomers: all bioisosteres are not created equal” (Medchemcomm, 2012).
